Laboratory results published in a melting point compilation (Tetko et al.; mined from patent text by program, amines drawn as free bases though some values may be those of a salt).

Structure (SMILES) | melting point
O=C(c1c(Cl)cccc1Cl)N(C(=O)c1c(Cl)cccc1Cl)c1cc(-c2ccc(Cl)cc2)on1 | 219 to 223 °C
CC(=O)OC1CSC(Oc2ccc(-c3cnoc3C)nc2)C(OC(C)=O)C1OC(C)=O (stereo unspecified) | 165 °C
CCOC(=O)C(=O)/C=C/c1ccc(OCCc2nc(-c3ccccc3)oc2C)cc1 | 99 to 100 °C
C[C@@H](n1ccn(-c2ccc(-n3nccn3)cc2)c1=O)[C@](O)(Cn1cncn1)c1ccc(F)cc1F | 182 to 185 °C
O=C1CCC(N2Cc3c(OCc4ccc(CN5CCNCC5)cc4)cccc3C2=O)C(=O)N1 (stereo unspecified) | 196 to 198 °C
O=C(OCCOCCOCCO)C(=O)c1ccc(OCCOc2ccc3ccccc3c2)cc1 | 70 to 71 °C
CCOC(=O)c1c(N2CCN(C(=O)c3cccs3)CC2)c2cccnc2n(CCCN(C)C)c1=O | 84 to 94 °C
COc1c(C)cc(-c2nn(C(C)c3oc4ccccc4c(=O)c3-c3cccc(F)c3)c3ncnc(N)c23)cc1C (stereo unspecified) | 234 to 236 °C
Cc1cc(Oc2cccc(C(F)(F)F)c2)nn1C(=O)Nc1cccc([N+](=O)[O-])c1 | 83 to 86 °C
CCCN(CCC)CCc1ccc(O)c(N)c1 | 127 to 151 °C
Cc1cc(O)c(C)c(C)c1NC=O | 219 to 220 °C
C#Cc1c(C#N)nn(-c2c(Cl)cc(C(F)(F)F)cc2Cl)c1Cl | 109 to 110 °C
COc1cc(OC)nc(Sc2cccc(Cl)c2C(=O)O)n1 | 148 to 151 °C
CCCCCCCCCCCCc1ccc(C(=O)c2ccccc2C(=O)O)cc1 | 85 °C
N#Cc1cccc(-c2cc(-c3cc(C#N)ccc3[N+](=O)[O-])no2)c1 | 225 to 227 °C
O=C(c1ccccc1)N1Cc2c(-c3noc(C4CC4)n3)ncn2-c2cccc(F)c21 | 234 to 236 °C
CCOC(=O)N1CCCc2nc3cc(C)ccc3c(C)c2C1 | 132 °C
CCOC(=O)C(=O)Nc1c([N+](=O)[O-])sc2ccc([N+](=O)[O-])cc12 | 178 to 183 °C
Cc1c2ccnc(Cl)c2cc2c1[nH]c1ccncc12 | > 263 °C
C[Si](C)(C)C#Cc1ccc(-n2c(-c3ccccc3)ccc2-c2ccccc2)cc1 | 183 to 184 °C
CCCOc1nsc(NC(=O)C(C)C)c1C#N | 220 to 221 °C
CCOC(=O)c1ccc2cc(-c3cccc4ccccc34)ccn2c1=O | 245 to 247 °C
COC(=O)NCC(=CF)c1ccccc1 | 73 to 74 °C
O=C(NC(Cc1ccc(OCc2ccoc2)cc1)C(=O)O)c1cn2nc(-c3ccc(Cl)cc3)ccc2n1 (stereo unspecified) | 220 °C
Cc1nc(Cl)c(C#N)cc1-c1ccccc1 | 134 to 135 °C
COc1ccc(C(=O)C23CC4CC(C2)CC(C(=O)c2ccc(OC)cc2)(C4)C3)cc1 | 148 to 150 °C

Structure (SMILES) | melting point
COC(=O)Cc1sc(=O)[nH]c1/C=C/c1ccccc1 | 164 °C
O=[N+]([O-])C=C1C[N+]([O-])=C(c2ccccc2F)c2cc([N+](=O)[O-])ccc2N1 | 216 to 220 °C
COc1cc2c(cc1OC)CN(C)C2 | 80 °C
COc1ccc(N=C(C)c2ccccc2)cc1 | 81 to 82 °C
Cc1cc(=O)c(-c2ccc(Oc3cccc(OC(F)(F)F)c3)cc2)c(C)[nH]1 | 244 to 246 °C
COc1ccc(-c2cnn3c(N)c(-c4ccc(F)c(Cl)c4)c(C)nc23)cc1OC | 235 to 238 °C
CN1Cc2c(C#Cc3ccccc3)ncn2-c2cccc(Cl)c2C1=O | 205 to 206 °C
N#Cc1c(Cl)c2cccnc2n(Cc2ccccc2)c1=O | 188 °C
Cc1nc2c(N)nc3ccccc3c2s1 | 184 to 187 °C
COC(=O)c1ccc(Cl)cc1NC(=O)CSc1ccc(O)cc1 | 165 to 168 °C
COc1ccc(/C=C/S(=O)(=O)N(C)c2ccccc2)cc1 | 126 to 129 °C
COC(=O)c1ccc2occ(-c3ccc(S(C)=O)cc3)c2c1 (stereo unspecified) | 145 to 146 °C
CS(=O)(=O)N1CCC2OC2CC1 (stereo unspecified) | 133 to 134 °C
Cn1cnc2nc(-c3cccc4ccccc34)nn2c1=S | 278 to 279 °C
COc1c(C)cccc1CC(N)(CF)C(N)=O (stereo unspecified) | 118 °C
CCOC(=O)CSc1nc2cc([N+](=O)[O-])ccc2[nH]1 | 114 °C
CCCCOc1ccccc1C(O)CNC(C)Cc1ccc(OC)c(OC)c1 (stereo unspecified) | 119 to 121 °C
O=C(O)C(=O)c1ccc(-c2ccc(Cl)cc2)s1 | 339 to 343 °C
CCOc1ccccc1-c1cc(OC)c(C(=O)N2Cc3cccn3Cc3ccccc32)cc1Cl | 213 to 215 °C
COc1ccc(/C(=C/C=C/C(=O)Oc2ccc([N+](=O)[O-])cc2)c2cccs2)cc1 | 113 to 115 °C
CCCCCC(CNC(=O)Nc1c(C(C)C)cccc1C(C)C)c1cccc2c1OCO2 (stereo unspecified) | 161 to 163 °C
CCOC(=O)Nc1ccc(C(=O)c2ccccc2)cc1COC1CCCCO1 (stereo unspecified) | 116 °C
CCOC(=O)c1nn(-c2cccc(C(F)(F)F)c2)c2c1CCCC2 | 77 to 78 °C
CCCCn1c(=O)c2c(ncn2S(=O)(=O)c2ccc(NO)cc2)n(CCCC)c1=O | 148 to 150 °C
CCOC(=O)C1=Cc2cc(Cl)cc(-c3ccc(Cl)cc3)c2OC1C(F)(F)F (stereo unspecified) | 114 to 116 °C
C(=C\c1cc(/C=C/c2ccc3cc[nH]c3c2)[nH]n1)/c1ccc2cc[nH]c2c1 | 289 to 291 °C

Structure (SMILES) | melting point
ClCc1nc2ccccc2s1 | 34 °C
CCOCCN(CCOCC)NC(=O)NS(=O)(=O)c1ccc(Cl)cc1 | 84.5 to 85.5 °C
N#CCCOc1ccc(F)cc1 | 84 to 85 °C
CC(C)(C)n1cc(C(=O)O)c(=O)c2cc(F)c(F)cc21 | > 260 °C
Clc1cc2c(c(-c3nc4ncccc4o3)c1)CCCC2 | 130 to 132 °C
CCOC(=O)c1nc(S(C)(=O)=O)n(C)c(=O)c1OCc1ccccc1 | 84 to 85 °C
CC1C(O)CCC2CC3(CCC21)OCCO3 (stereo unspecified) | 56 to 68 °C
Nc1ccc(Sc2ccccc2)cn1 | 127 to 129 °C
CCOc1cc(CN2CCN(c3ccc(C(=O)NC4CC4)cc3C)CC2)cc2c1OC(C)C(=O)N2 (stereo unspecified) | 223 to 224 °C
CC(=O)c1cc2c(s1)C(=O)c1ccsc1C2=O | 223 to 225 °C
CCOC(=O)c1cn(CC)nc1O | 109 to 110 °C
CC(C#N)c1c(Cl)cc([N+](=O)[O-])cc1Cl (stereo unspecified) | 72 °C
COc1cc(Cc2cnc(N)nc2N)c2c(c1OC)OC(C)C2 (stereo unspecified) | 216 to 219 °C
COc1ccc2sc(-c3ccc(OCCN4CCCC4)cc3)c(C(=O)c3ccc(OC4CCCCC4N4CCCCC4)cc3)c2c1 (stereo unspecified) | 63 to 66 °C
CCn1cc(C(=O)O)c(=O)cc1-c1ccc(N(C)C)cc1 | 258 to 259 °C
CC(C)(C)OC(=O)CONC(=O)c1ccc(C(=O)C(C)(C)C)cc1 | 87 to 88 °C
COc1ccc(Sc2ccccc2CC#N)cc1 | 65 to 67 °C
CCc1[nH]n(C2CCCC2)c2nc(SC)nc(=O)c1-2 | 200 to 202 °C
N#Cc1ccccc1-c1ccc(O)cc1 | 176 to 178 °C
CCOC(=O)c1cc2c(cc1OCC)C(=O)C=CC2=O | 60 to 62 °C
Cc1cc2c(cc1C1=NNC(=O)SC1C)C(C)(C)C(=O)N2 (stereo unspecified) | 240 °C
CC(=O)Oc1ccc(C(CN(C(C)=O)C(C)(C)C)OC(C)=O)nc1C (stereo unspecified) | 124 to 128 °C
CC(=O)c1ccc2c(c1)ncn2-c1cccc(-c2cncnc2)c1 | 253 to 254 °C
COC(=O)c1cc(Cl)c(N=C2NCCN2)c(Cl)c1 | 229 to 231 °C
NS(=O)(=O)c1ccc(NC(=O)c2ccc(F)cc2SSc2cc(F)ccc2C(=O)Nc2ccc(S(N)(=O)=O)cc2)cc1 | 309 to 310 °C
CS(=O)(=O)NCCS(=O)(=O)N1CCN(S(=O)(=O)c2ccc(-c3ccc(Cl)cc3)s2)[C@@H](C(=O)NO)C1 | 118 to 122 °C

Structure (SMILES) | melting point
CCCOc1ccc(S(=O)(=O)N2CCN(CCOC(=O)OCC)CC2)cc1-c1nc2c(CCC)cn(CC)c2c(=O)[nH]1 | 135 to 136 °C
O=c1[nH]c2ccc([N+](=O)[O-])cc2s1 | 252 °C
COc1cc(=O)n(-c2cccc(C(F)(F)F)c2)nc1C(C)=O | 136 to 138 °C
O=C(O)c1ccc(NCCCCOc2ccccc2)cc1 | 153 to 155 °C
COCCN1CCc2cc(Nc3ncc(Cl)c(Nc4cc(C(N)=O)ccc4OC)n3)c(OC)cc2CC1 | 218 to 225 °C
COc1ccc(F)cc1OCCN1C(=O)c2ccccc2C1=O | 134 to 136 °C
COC1(C)CCc2ccc(O)cc2O1 (stereo unspecified) | 107 to 108 °C
N#Cc1c(N2CCN(C(=O)c3ccco3)CC2)c2cc(F)ccc2n(Cc2ccc(F)cc2)c1=O | 248 °C
O=C(O)CCn1cccc1Cn1ccnc1 | 127 to 128 °C
O=C(O)Cc1ccccc1OCCCc1cn(-c2ccc(C(F)(F)F)cn2)nc1-c1ccccc1 | 133 to 134 °C
COc1cc2c(c3c1OC(C)(C)C3)C(c1cccc(C(=O)N[C@H]3CNC3=O)c1)=NC(C)(C)C2 | 154 to 157 °C
CCOCc1nc2c(N)nc3c(c2n1CCCCS(N)(=O)=O)CCCC3 | 224 to 227 °C
Cc1nc(-c2ccccc2)cc(-c2cccc(C#N)c2)c1C(=O)NCCN1CCOCC1 | 166 to 168 °C
CN(c1ccccc1)S(=O)(=O)c1ccc(NC(=O)C(C)(O)C(F)(F)F)cc1 (stereo unspecified) | 147 to 149 °C
O=c1cc(-c2ccncc2)cc[nH]1 | 263 to 265 °C
COc1ccc(CC(=O)Cc2c(OC)cc(OC)c(CC=C(C)C)c2OCC(=O)O)cc1 | 102 °C
CCOc1ccc(C2=NN(C3CCN(C(=O)Nc4ccccc4)CC3)C(=O)[C@@H]3CC=CC[C@H]23)cc1OCC | 109 to 112 °C
c1ccc(-n2c3ccccc3c3ccccc32)cc1 | 96 to 97 °C
Cc1ccc(C=CCC(CCC(=O)O)(C(=O)C=Cc2ccc(Cl)cc2)c2ccccc2)cc1 (stereo unspecified) | 170 to 180 °C
O=C(N[C@@H](Cc1c[nH]c2ccccc12)C(=O)O)c1ccccc1 | 84 to 86 °C
CCOC(=O)c1cn(C2CC2)c2c(C)c(N3CCN(C)CC3)c(F)c(C)c2c1=O | 146 to 147 °C
CC(=O)Nc1cccc2c1C(=O)c1c-2n[nH]c1-c1cccnc1 | > 300 °C
Cc1cc(C#N)nc(-c2ccc([N+](=O)[O-])cc2)c1 | 146 to 156 °C
